Source: publication PMC8260761, “A bacteriocin-based treatment option for Staphylococcus haemolyticus biofilms” (Scientific Reports, 2021)

Columns and labels:
Assay in all cases: Spot-on-lawn inhibition assay
Format in all cases: cell-based
L. plantarum = test system: L. plantarum; design: key: –: “−” = No inhibition; “+” = Unclear zone; “++” = zone < 1 cm; “+++” = zone ≥ 1 cm; details: L. plantarum LMG 2352; 5 µl at 1 mg/ml; n=3
Procedure: (§1) A semi-quantitative spot-on-lawn inhibitory assay was performed on 51 bacterial indicator strains (Table S1) to determine the bacteriocins inhibition spectra. Overnight cultures were diluted 1:100 in BHI soft agar and distributed on BHI agar plates. Once solidified, bacteriocins with various concentrations were applied on designated spots. The plates were incubated at appropriate temperature O/N and inhibition zones were measured the following day. To determine minimal inhibitory concentration (MIC50) of H1 against clinical S. haemolyticus isolates (Table S2), as well as strains heterologously expressing RseP (Table S4), the microtiterplate antimicrobial assay was performed as previously described[41],[79]. MIC50 was defined as the minimal bacteriocin concentration needs to inhibit the growth of a bacterial strain by at least 50%.

Enterococcus avium = test system: Enterococcus avium; design: key: –: “−” = No inhibition; “+” = Unclear zone; “++” = zone < 1 cm; “+++” = zone ≥ 1 cm; details: Enterococcus avium LMG 3465; 5 µl at 1 mg/ml; n=3
Procedure: as §1

E. faecalis = test system: E. faecalis; design: key: –: “−” = No inhibition; “+” = Unclear zone; “++” = zone < 1 cm; “+++” = zone ≥ 1 cm; details: 5 µl at 1 mg/ml, n=3
Procedure: as §1

L. ivanovii = test system: L. ivanovii; design: key: –: “−” = No inhibition; “+” = Unclear zone; “++” = zone < 1 cm; “+++” = zone ≥ 1 cm; details: L. ivanovii Li4; 5 µl at 1 mg/ml; n=3
Procedure: as §1

Lactococcus garvieae = test system: Lactococcus garvieae; design: key: –: “−” = No inhibition; “+” = Unclear zone; “++” = zone < 1 cm; “+++” = zone ≥ 1 cm; details: Lactococcus garvieae DCC43; 5 µl at 1 mg/ml; n=3
Procedure: as §1

[1] = test system: Staphylococcus haemolyticus strains; design: key to Average inhibition score: –: “−” = No inhibition; “+” = Unclear zone; “++” = zone < 1 cm; “+++” = zone ≥ 1 cm
Procedure: as §1

Lactobacillus curvatus = details: 5 µl at 1 mg/ml, n=3
Procedure: as §1

E. faecium = details: 5 µl at 1 mg/ml, n=3
Procedure: as §1

S. homonis = S. homonis LMG 3129; 5 µl at 1 mg/ml; n=3
Procedure: as §1

L. monocytogenes = test system: L. monocytogenes; design: key: “-“ = No inhibition; “+” = Unclear zone; “++” = zone < 1 cm; “+++”= zone > 1 cm; details: 5 µl at 1 mg/ml, n=3
Procedure: as §1

L. salivarius = test system: L. salivarius; design: key: “-“ = No inhibition; “+” = Unclear zone; “++” = zone < 1 cm; “+++”= zone > 1 cm; details: L. salivarius UCC118; 5 µl at 1 mg/ml; n=3
Procedure: as §1

L. innocua = test system: L. innocua; design: key: “-“ = No inhibition; “+” = Unclear zone; “++” = zone < 1 cm; “+++”= zone > 1 cm; details: 5 µl at 1 mg/ml, n=3
Procedure: as §1

S. aureus = test system: S. aureus; design: key: “-“ = No inhibition; “+” = Unclear zone; “++” = zone < 1 cm; “+++”= zone > 1 cm; details: 5 µl at 1 mg/ml, n=3
Procedure: as §1

[2] = test system: Streptococcus dysgalactiae; design: key: “-“ = No inhibition; “+” = Unclear zone; “++” = zone < 1 cm; “+++”= zone > 1 cm; details: Streptococcus dysgalactiae 7649-3; 5 µl at 1 mg/ml; n=3
Procedure: as §1

MKFKFNPTGTIVKKLTQYEIAWFKNKHGYYPWEIPRC [K1, enterocin K1]
+: Average inhibition score (L. plantarum) | Average inhibition score (Enterococcus avium) | Average inhibition score (E. faecalis; E. faecalis LMG 2333) | Average inhibition score (E. faecalis; E. faecalis LMG 3330) | Average inhibition score (E. faecalis; E. faecalis LMG 3331) | Average inhibition score (E. faecalis; E. faecalis LMG 3332) | Average inhibition score (E. faecalis; E. faecalis V583) | Average inhibition score (L. ivanovii) | Average inhibition score ([1]; S. haemolyticus LMG 4133, 5 µl at 1 mg/ml, n=3) | Average inhibition score ([1]; S. haemolyticus SH10, 5 μl at 1 mg/ml, n = 3) | Average inhibition score ([1]; S. haemolyticus SH20, 5 μl at 1 mg/ml, n = 3) | Average inhibition score ([1]; S. haemolyticus SH47, 5 μl at 1 mg/ml, n = 3)
–: Average inhibition score ([1]; S. haemolyticus 4068, 5 μl at 1 mg/ml, n = 3) | Average inhibition score ([1]; S. haemolyticus 4069, 5 μl at 1 mg/ml, n = 3) | Average inhibition score ([1]; S. haemolyticus 4070, 5 μl at 1 mg/ml, n = 3) | Average inhibition score ([1]; S. haemolyticus 4071, 5 μl at 1 mg/ml, n = 3) | Average inhibition score ([1]; S. haemolyticus 4072, 5 μl at 1 mg/ml, n = 3) | Average inhibition score ([1]; S. haemolyticus 4073, 5 μl at 1 mg/ml, n = 3) | Average inhibition score ([1]; S. haemolyticus 7067_4_21, 5 μl at 1 mg/ml, n = 3) | Average inhibition score ([1]; S. haemolyticus 7067_4_28, 5 μl at 1 mg/ml, n = 3) | Average inhibition score ([1]; S. haemolyticus 7067_4_39, 5 μl at 1 mg/ml, n = 3) | Average inhibition score ([1]; S. haemolyticus 7067_4_48, 5 μl at 1 mg/ml, n = 3) | Average inhibition score ([1]; S. haemolyticus 7067_4_49, 5 μl at 1 mg/ml, n = 3) | Average inhibition score ([1]; S. haemolyticus 7067_4_56, 5 μl at 1 mg/ml, n = 3) | Average inhibition score ([1]; S. haemolyticus 7067_4_66, 5 μl at 1 mg/ml, n = 3) | Average inhibition score ([1]; S. haemolyticus 7067_4_67, 5 μl at 1 mg/ml, n = 3) | Average inhibition score ([1]; S. haemolyticus 7067_4_71, 5 μl at 1 mg/ml, n = 3) | Average inhibition score ([1]; S. haemolyticus 7067_4_84, 5 μl at 1 mg/ml, n = 3) | Average inhibition score ([1]; S. haemolyticus 7068_7_63, 5 μl at 1 mg/ml, n = 3) | Average inhibition score ([1]; S. haemolyticus SH01, 5 μl at 1 mg/ml, n = 3) | Average inhibition score ([1]; S. haemolyticus SH04, 5 μl at 1 mg/ml, n = 3) | Average inhibition score ([1]; S. haemolyticus SH09, 5 μl at 1 mg/ml, n = 3) | Average inhibition score ([1]; S. haemolyticus SH14, 5 μl at 1 mg/ml, n = 3) | Average inhibition score ([1]; S. haemolyticus SH46, 5 μl at 1 mg/ml, n = 3)
+++ (“+++”= zone > 1 cm): Average inhibition score (Lactococcus garvieae) | Average inhibition score (Lactobacillus curvatus; L. curvatus LMG 2353) | Average inhibition score (Lactobacillus curvatus; Lactobacillus curvatus LTH 1174) | Average inhibition score (E. faecium; E. faecium P13) | Average inhibition score (L. innocua; L. innocua LMG 2785)
++ (“++” = zone < 1 cm): Average inhibition score ([1]; S. haemolyticus 7067_4_60, 5 μl at 1 mg/ml, n = 3) | Average inhibition score (E. faecium; E. faecium AL41) | Average inhibition score (E. faecium; E. faecium L50) | Average inhibition score (E. faecium; E. faecium P21) | Average inhibition score (S. homonis) | Average inhibition score (L. innocua; L. innocua LMG 2710)
did not result in any inhibition: Inhibition zones at three concentrations ([1]; six S. haemolyticus strains 4068–4073, 0.04, 0.2 and 1.0 mg/ml, 5 µl spotted)
-: Average inhibition score (L. monocytogenes; L. monocytogenes 223) | Average inhibition score (L. monocytogenes; L. monocytogenes 279) | Average inhibition score (L. monocytogenes; L. monocytogenes 400) | Average inhibition score (L. monocytogenes; L. monocytogenes 403) | Average inhibition score (L. salivarius) | Average inhibition score (S. aureus; S. aureus ATCC14458) | Average inhibition score (S. aureus; S. aureus LMG 3263) | Average inhibition score (S. aureus; S. aureus LMG 3325) | Average inhibition score (S. aureus; S. aureus LMG 3326) | Average inhibition score (S. aureus; S. aureus LMG 3328) | Average inhibition score (S. aureus; S. aureus LMG 3329) | Average inhibition score [2]
